Assay: Partition coefficient of compound (A) in solvents
Format: physicochemical
Settings: HPLC, approximately 25° C.
Protocol: Experimental procedure for the respective solvent: (1) A solution of 10 g of compound (A) is prepared in 90 g of the respective solvent. (2) An aliquot of 10 g of the solution obtained in step (1) is added to 90 g of water in a glass bottle, which is shaken on a mechanical shaker for 4 hours at ambient temperature (approximately 25° C.). (3) The contents of the glass bottle are permitted to phase separate for 4 days at ambient temperature (approximately 25° C.). (4) Subsamples of the resulting oil and water phases are taken and analyzed by HPLC to determine the concentrations of compound (A) in oil (Co) and water phases (Cw) respectively. The subsamples are typically centrifuged before HPLC analysis to remove traces of organic solvent from the water phase.
A Partition Coefficient, analogous to the Octanol-Water Partition Coefficient, P, is calculated as Co/Cw. The Partition Coefficient is conveniently expressed as a logarithm […].
The ratio of determined concentrations of compound (A) in the solvent phase and the water phase typically is very large. […] In other cases, traces of the organic solvent are found in the water phase, even after centrifugation, so that the apparent concentration of oil-soluble herbicide observed in the water phase is misleadingly high. […]

## CCOC(=O)COc1ncccc1Oc1cc(-n2c(=O)cc(C(F)(F)F)n(C)c2=O)c(F)cc1Cl [Cmp. A, ethyl [3-[2-chloro-4-fluoro-5-(1-methyl-6-trifluoromethyl-2,4-dioxo-1,2,3,4-tetrahydropyrimidin-3-yl)phenoxy]-2-pyridyloxy]acetate]
Acetophenone as organic solvent
  compound (A) in the water phase: undetectable
Aromatic 200 ND as organic solvent
  compound (A) in the water phase: undetectable

— US20230053941A1, “MICROEMULSIONS WITH DICAMBA SALTS HAVING IMPROVED PROPERTIES” (MONSANTO TECHNOLOGY LLC, priority 2020, published 2023)
